From PubChem BioAssay AID1963435 (Molecular Pharmacology Branch, DTP, NCI, 2024)
Several values for one entry are separate records, joined by “and”; a condition that tells them apart may be missing. Equal entries are not always repeated.

Tested on: PANC-1 complex spheroid growth, percent test/control
Assay: Anticancer human tumor PANC-1 cell line growth inhibition [Asc];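 further: spheroids exposed to agents for 7 days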;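 on viability, T/C: percent viability relative to DMSO vehicle wells taken as 100%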
Settings: for viability, T/C: stronger effect = lower value; active means viability on the fitted dose curve at most 10% of control; inactive means the rest
Method in brief: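 Tumor cells were grown as complex spheroids with human endothelial cells (HUVEC) and human mesenchymal stem cells as stroma. Agents were tested alone and in combination, in half-log steps down from the clinical Cmax, or from 10 microM where Cmax was unknown.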

[1] = curve of first compound, second compound 0.0316 µM
[2] = curve of first compound, second compound 0.1 µM
[3] = curve of first compound, second compound 0.316 µM
[4] = curve of first compound, second compound 1 µM
[5] = curve of first compound, second compound 3.16 µM
[6] = curve of first compound, second compound 10 µM
[7] = second compound 0.0316 µM, first compound 0.0316 µM
[8] = second compound 0.0316 µM, first compound 0.1 µM
[9] = second compound 0.0316 µM, first compound 0.316 µM
[10] = second compound 0.0316 µM, first compound 1 µM
[11] = second compound 0.0316 µM, first compound 3.16 µM
[12] = second compound 0.0316 µM, first compound 10 µM
[13] = second compound 0.1 µM, first compound 0.0316 µM
[14] = second compound 0.1 µM, first compound 0.1 µM
[15] = second compound 0.1 µM, first compound 0.316 µM
[16] = second compound 0.1 µM, first compound 1 µM
[17] = second compound 0.1 µM, first compound 3.16 µM
[18] = second compound 0.1 µM, first compound 10 µM
[19] = second compound 0.316 µM, first compound 0.0316 µM
[20] = second compound 0.316 µM, first compound 0.1 µM
[21] = second compound 0.316 µM, first compound 0.316 µM
[22] = second compound 0.316 µM, first compound 1 µM
[23] = second compound 0.316 µM, first compound 3.16 µM
[24] = second compound 0.316 µM, first compound 10 µM
[25] = second compound 1 µM, first compound 0.0316 µM
[26] = second compound 1 µM, first compound 0.1 µM
[27] = second compound 1 µM, first compound 0.316 µM
[28] = second compound 1 µM, first compound 1 µM
[29] = second compound 1 µM, first compound 3.16 µM
[30] = second compound 1 µM, first compound 10 µM
[31] = second compound 3.16 µM, first compound 0.0316 µM
[32] = second compound 3.16 µM, first compound 0.1 µM
[33] = second compound 3.16 µM, first compound 0.316 µM
[34] = second compound 3.16 µM, first compound 1 µM
[35] = second compound 3.16 µM, first compound 3.16 µM
[36] = second compound 3.16 µM, first compound 10 µM
[37] = second compound 10 µM, first compound 0.0316 µM
[38] = second compound 10 µM, first compound 0.1 µM
[39] = second compound 10 µM, first compound 0.316 µM
[40] = second compound 10 µM, first compound 1 µM
[41] = second compound 10 µM, first compound 3.16 µM
[42] = second compound 10 µM, first compound 10 µM

C=CC(=O)N1CCN(c2nc(=O)n(-c3c(C)ccnc3C(C)C)c3nc(-c4c(O)cccc4F)c(F)cc23)C(C)C1 (stereo not drawn) + Cc1c(S(C)(=O)=O)c(-c2cc(F)cc(N3CCN(c4ccc(NS(=O)(=O)c5ccc(NC(CCN6CCC(C(=O)OCCCP(=O)(O)O)CC6)CSc6ccccc6)c(S(=O)(=O)C(F)(F)F)c5)cc4)CC3)c2)c(-c2ccc(Cl)cc2)n1C(C)C
> 10 µM: IC50 [1] | IC50 [2] | IC50 [3] | IC50 [4] | IC50 [5] | IC50 [6]
inactive: viability, T/C [7] 98.5% | viability, T/C [8] 95.1% | viability, T/C [9] 93.7% | viability, T/C [10] 89.7% | viability, T/C [11] 98.5% | viability, T/C [12] 88.2% | viability, T/C [13] 99.3% | viability, T/C [14] 90.3% | viability, T/C [15] 105% | viability, T/C [16] 106% | viability, T/C [17] 88.8% | viability, T/C [18] 94.5% | viability, T/C [19] 107% | viability, T/C [20] 97% | viability, T/C [21] 105% | viability, T/C [22] 105% | viability, T/C [23] 98.4% | viability, T/C [24] 98% | viability, T/C [25] 96.2% | viability, T/C [26] 104% | viability, T/C [27] 107% | viability, T/C [28] 114% | viability, T/C [29] 95.6% | viability, T/C [30] 92.6% | viability, T/C [31] 107% | viability, T/C [32] 109% | viability, T/C [33] 104% | viability, T/C [34] 102% | viability, T/C [35] 109% | viability, T/C [36] 92.4% | viability, T/C [37] 166% | viability, T/C [38] 166% | viability, T/C [39] 162% | viability, T/C [40] 177% | viability, T/C [41] 175% | viability, T/C [42] 135%

COc1c(OCCCN2CCOCC2)ccc2c3n(c(=NC(=O)c4cnc(N)nc4)nc12)CCN3
inactive: viability, T/C (compound 0.00316 µM) 101% and 93.1% and 100% | viability, T/C (compound 0.01 µM) 89.9% and 93.9% and 92.4% | viability, T/C (compound 0.0316 µM) 92% and 108% and 94.5% | viability, T/C (compound 0.1 µM) 78.6% and 67.6% and 82.1% | viability, T/C (compound 0.316 µM) 52.2% and 63.2% and 49.7% | viability, T/C (compound 1 µM) 39.4% and 36.3% and 28.6%
0.511 µM and 0.302 µM and 0.385 µM: IC50 (curve of compound)

O=C(c1cc(Cc2n[nH]c(=O)c3ccccc23)ccc1F)N1CCN(C(=O)C2CC2)CC1 + Cc1c(S(C)(=O)=O)c(-c2cc(F)cc(N3CCN(c4ccc(NS(=O)(=O)c5ccc(NC(CCN6CCC(C(=O)OCCCP(=O)(O)O)CC6)CSc6ccccc6)c(S(=O)(=O)C(F)(F)F)c5)cc4)CC3)c2)c(-c2ccc(Cl)cc2)n1C(C)C
inactive: viability, T/C [7] 106% | viability, T/C [8] 104% | viability, T/C [9] 107% | viability, T/C [10] 107% | viability, T/C [11] 99% | viability, T/C [12] 93.7% | viability, T/C [13] 89% | viability, T/C [14] 107% | viability, T/C [15] 107% | viability, T/C [16] 103% | viability, T/C [17] 117% | viability, T/C [18] 95.5% | viability, T/C [19] 102% | viability, T/C [20] 103% | viability, T/C [21] 112% | viability, T/C [22] 112% | viability, T/C [23] 103% | viability, T/C [24] 86.1% | viability, T/C [25] 112% | viability, T/C [26] 101% | viability, T/C [27] 105% | viability, T/C [28] 111% | viability, T/C [29] 111% | viability, T/C [30] 86.9% | viability, T/C [31] 103% | viability, T/C [32] 106% | viability, T/C [33] 106% | viability, T/C [34] 115% | viability, T/C [35] 119% | viability, T/C [36] 87.2% | viability, T/C [37] 166% | viability, T/C [38] 178% | viability, T/C [39] 187% | viability, T/C [40] 202% | viability, T/C [41] 171% | viability, T/C [42] 88.9%
> 10 µM: IC50 [1] | IC50 [2] | IC50 [3] | IC50 [4] | IC50 [5] | IC50 [6]

CNC(C)C(=O)NC1CN(S(=O)(=O)c2cccc(S(=O)(=O)N3CCC4CCC(C(=O)NC(c5ccccc5)c5ccccc5)N4C(=O)C(NC(=O)C(C)NC)C3)c2)CCC2CCC(C(=O)NC(c3ccccc3)c3ccccc3)N2C1=O (stereo not drawn) + Cc1c(S(C)(=O)=O)c(-c2cc(F)cc(N3CCN(c4ccc(NS(=O)(=O)c5ccc(NC(CCN6CCC(C(=O)OCCCP(=O)(O)O)CC6)CSc6ccccc6)c(S(=O)(=O)C(F)(F)F)c5)cc4)CC3)c2)c(-c2ccc(Cl)cc2)n1C(C)C
> 1 µM: IC50 [1] | IC50 [2] | IC50 [3] | IC50 [4] | IC50 [5] | IC50 [6]
inactive: viability, T/C (second compound 0.0316 µM, first compound 0.00316 µM) 100% | viability, T/C (second compound 0.0316 µM, first compound 0.01 µM) 92.3% | viability, T/C [7] 97.5% | viability, T/C [8] 94.9% | viability, T/C [9] 98.6% | viability, T/C [10] 91.8% | viability, T/C (second compound 0.1 µM, first compound 0.00316 µM) 96.6% | viability, T/C (second compound 0.1 µM, first compound 0.01 µM) 98.4% | viability, T/C [13] 105% | viability, T/C [14] 93.8% | viability, T/C [15] 98.6% | viability, T/C [16] 96.9% | viability, T/C (second compound 0.316 µM, first compound 0.00316 µM) 98.3% | viability, T/C (second compound 0.316 µM, first compound 0.01 µM) 113% | viability, T/C [19] 97.4% | viability, T/C [20] 101% | viability, T/C [21] 103% | viability, T/C [22] 91.9% | viability, T/C (second compound 1 µM, first compound 0.00316 µM) 101% | viability, T/C (second compound 1 µM, first compound 0.01 µM) 113% | viability, T/C [25] 105% | viability, T/C [26] 102% | viability, T/C [27] 109% | viability, T/C [28] 88.9% | viability, T/C (second compound 3.16 µM, first compound 0.00316 µM) 104% | viability, T/C (second compound 3.16 µM, first compound 0.01 µM) 104% | viability, T/C [31] 103% | viability, T/C [32] 94.9% | viability, T/C [33] 98.5% | viability, T/C [34] 90.7% | viability, T/C (second compound 10 µM, first compound 0.00316 µM) 173% | viability, T/C (second compound 10 µM, first compound 0.01 µM) 183% | viability, T/C [37] 173% | viability, T/C [38] 160% | viability, T/C [39] 185% | viability, T/C [40] 158%
